Legend:
[1] = system: primary human skin cells (skin fibroblast cells or primary keratinocytes); experiment: in vitro 2D skin model, cellular ROS levels by MitoSOX; format: cell-based; conditions: 100 nM and 1 μM, 0.1% DMSO solvent control
From the text: Methylene Blue: [7-(dimethylamino) phenthiazin-3-ylldene]-dImethylazinium chloride, or more simply as methylthloninium chloride. Also included are all hydrates, particularly, the hydrate or trihydrate of Methylene Blue as well as all dermatologically acceptable salts thereof, such as the chloride salt. All forms of Methylene Blue are also abbreviated herein as MB and are to be understood as such. about: as used herein means±10%. […] Examples of conventional sunscreen excipients or adjuvants, include, for example, xanthan gums, corn starch, film-forming polymers and/or copolymers, glycerin, emulsifiers, moisturizing agents and cosmetic ingredients. Further examples of conventional sunscreen composition excipients or adjuvants are described in U.S. Pat. Nos. 9,149,664; 8,128,913; 9,050,475 and 6,800,274, all of which are incorporated herein by reference in the entirety. […] SPF: means a “sun protection factor” defined at 21 USC 352.1 et seq. using the term MED, which in turn means Minimal Erythema Dose, which is defined as the quantity of erythema-effective energy (expressed in Joules per square meter) required to produce the first perceptible redness reaction with clearly defined borders. […]

[2] = system: primary human skin cells (skin fibroblast cells or primary keratinocytes); experiment: in vitro 2D skin model, cell proliferation; format: cell-based; conditions: after 13 days; for cell proliferation: 100 nM and 1 μM, relative to control treatment
From the text: Methylene Blue: [7-(dimethylamino) phenthiazin-3-ylldene]-dImethylazinium chloride, or more simply as methylthloninium chloride. Also included are all hydrates, particularly, the hydrate or trihydrate of Methylene Blue as well as all dermatologically acceptable salts thereof, such as the chloride salt. All forms of Methylene Blue are also abbreviated herein as MB and are to be understood as such. about: as used herein means±10%. […] Examples of conventional sunscreen excipients or adjuvants, include, for example, xanthan gums, corn starch, film-forming polymers and/or copolymers, glycerin, emulsifiers, moisturizing agents and cosmetic ingredients. Further examples of conventional sunscreen composition excipients or adjuvants are described in U.S. Pat. Nos. 9,149,664; 8,128,913; 9,050,475 and 6,800,274, all of which are incorporated herein by reference in the entirety. The present invention specifically avoids the inclusion of Oxybenzone and/or Octinoxate in the aforementioned U.S. patents which are used as UVA and/or UVB absorbers, and uses instead, Methylene Blue or any of the hydrates or dermatologically-acceptable salts thereof. Further, it is explicitly contemplated that conventional inorganic compounds, such as zinc oxide and/or titanium oxide, for example, may be used in formulating the sunscreen composition of the present invention. Also, polymers and/or copolymers that are conventionally used as sunscreen stabilizer emollients, such as polyester-8, may also be used in the present sunscreen formulations. Dermatologically-acceptable salts of MB: includes all salts recognized as safe for application to human skin, but generally, the chloride and/or hydrochloride salts are preferred. In vitro 2D skin test: This test is described in by Xiong, et al. in Scientific Reports 7, Article number: 2475 (2017), using primary human skin cells (skin fibroblast cells or primary keratinocytes). Sunscreen agents excluded from the present invention: the conventional sunscreen compounds Oxybenzone and Octinoxate are explicitly excluded from this invention. However, other conventional FDA-approved UVA and UVB absorbers may be used in combination with MB, its hydrates or salts in the present invention. SPF: means a “sun protection factor” defined at 21 USC 352.1 et seq. using the term MED, which in turn means Minimal Erythema Dose, which is defined as the quantity of erythema-effective energy (expressed in Joules per square meter) required to produce the first perceptible redness reaction with clearly defined borders. […]

[3] = scale of 1-10 (with 10 being the worst); cited from earlier work
human keratinocyte cells = experiment: cell death of keratinocytes after harsh UVB irradiation; format: cell-based; conditions: 5 days, versus control human keratinocyte cells
human skin fibroblasts [4] = experiment: gamma H2AX levels (DNA double strand breakage) after UVB exposure; format: cell-based; conditions: 24 hours after UVB exposure, 100 nM pre-treatment; control group doubled
Method: (§1) In this example, the protection ability of MB against UVB radiation was measured. […] Here, a preliminary study was conducted in which human skin fibroblasts were pre-treated with MB at 100 nM concentration for two weeks and then exposed to 0, 5, 10 and 20 seconds of UVB radiation at 1100 mW/cm^2.
Specifically, the histone H2AX Is phosphorylated to a gamma form (gamma H2AX) upon DNA double strand breakage and levels of gamma H2AX positively correlate with the presence of DNA breaks, which are commonly generated by UVB radiation.

[5] = spectrophotometric UV absorption of dilute solutions; format: physicochemical; conditions: 1 mM, MB versus BP-3
Method: In this example, the absorption characteristics based on spectrophotometric analysis of various dilute solutions of each of MB and oxybenzone (BP-3) were measured and then compared. The solution concentrations for each of MB and BP-3 were 100 μM and 1 mM.

human skin fibroblasts [6] = experiment: recovery of MB-pretreated skin fibroblasts after UVB radiation (cell viability, survival); format: cell-based; conditions: 100 nM pre-treatment for two weeks
Method: as §1, with “mW/cm^2. In this preliminary study, both groups, i.e., MB-exposed skin cells and the control group, were exposed to the same amount of UVB radiation.” for “mW/cm^2.”

Umbrella xenia = experiment: soft coral exposure in seawater for one week; format: in vivo; conditions: 0.5 and 1.0 μM in seawater
From the text: Samples of Umbrella xenia were placed in individual containers filled with seawater plus any one of MB or Oxybenzone or Octinoxate for one week. All of the containers were otherwise under the exact same temperature, lighting and water flow conditions. Separate containers were used for both “Control” (nothing added) and DMSO, also added in the same two concentrations specified below for MB, Oxybenzone and Octinoxate.

For COc1ccc(C(=O)c2ccccc2)c(O)c1 [BP-3], the “cellular reactive oxygen species (ROS) levels by MitoSOX” value [1] is listed as “elevated ROS levels”, the cell proliferation [2] is listed as “no changes in growth” and the EWG hazard score [3] is listed as 8.

For CN(C)c1ccc2nc3ccc(=[N+](C)C)cc-3sc2c1 [MB, [7-(dimethylamino)phenthiazin-3-ylldene]-dImethylazinium chloride], the “rescue of cell death after harsh UVB irradiation (FIG. 6)” value (human keratinocyte cells) was “partially rescue cell death”, the “cellular reactive oxygen species (ROS) levels by MitoSOX” value [1] was “dosage-dependent reduction in ROS” and the “levels of gamma H2AX” value (human skin fibroblasts [4]) was “reduced levels of gamma H2AX”. For the same compound, the “protection against UVB radiation (absorption)” value [5] was “superior protection against UVB radiation”, the “recovery after UVB radiation (cell viability)” value (human skin fibroblasts [6]; UVB 0-20 seconds at 1100 mW/cm^2, five days recovery, versus control group) was “significantly superior recovery” and the “survival after high dosage-UVB radiation (imaging analysis)” value (human skin fibroblasts [6]; versus control samples) was “superior survival”. For the same compound, the cell proliferation [2] was “increase in cell proliferation”, the “cell number reading (FIG. 1)” value ([2]; 100 nM) was “greatest cell number reading” and the “cell number reading (FIG. 1)” value ([2]; 1 μM) was “somewhat less”. The “effects on soft corals” value (Umbrella xenia) was “No adverse effects”.
